Experiments:
[1] = system: P-ERK (ERK phospho-T202/Y204) in A375 cells expressing V600E mutated BRAF; test: HTRF assay for P-ERK determination in A375 cells (BRAF inhibition); format: cell-based; conditions: Homo sapiens, A-375, P-ERK level, drug incubation 1 hour, DMSO = 100%, 10 μM Dabrafenib = 0%
Source text: (§1) A375 is a cellular cancer model expressing V600E mutated BRAF and HCT116 a cellular cancer model expressing WT BRAF. First generation BRAF inhibitors such as e.g. dabrafenib induce a paradox effect on tumour cells in that they inhibit the growth of V600E mutated BRAF cells (such as e.g. A375), while they activate growth in WT BRAF cells (such as e.g. HCT 116). ERK 1,2 phosphorylation (terminal member of the phosphorylation cascade of the MAPK pathway) is hereafter reported as main readout for the activation status of the MAPK pathway. DMEM no-phenol red medium supplemented with L-glutamine was purchased from (Thermo Fisher Scientific). Fetal bovine serum (FBS) was purchased from VWR. Advanced ERK phospho-T202/Y204 kit—10,000 tests was purchased from Cisbio cat #64AERPEH. A375 (catalog #CRL-1619) and HCT116 (catalog #CCL-247) cells were originally obtained from American type Culture Collection (ATCC) and banked by the Roche repository. 384-Well microplates utilized were purchased from Greiner Bio-One, 384-well, (With Lid, HiBase, Low volume cat 784-080).
(§2) Prior to the assay, A375 and HCT116 cell lines are maintained in DMEM no-phenol red medium supplemented with 10% fetal bovine serum (FBS). Following compound treatment, P-ERK levels are determined by measuring FRET fluorescence signal induced by selective binding of 2 antibodies provided in the mentioned kit (Cisbio cat #64AERPEH) on ERK protein when phosphorylated at Thr202/Tyr204. Briefly, 8000 cells/well in 12 μl media/well are plated in the 384-well plate and left overnight in the incubator (at 37° C. with 5% CO2-humidified atmosphere), the following day the plate is treated in duplicate with test compounds, dabrafenib and PLX8394 (the latter two as controls) at the following final drug concentrations: 10 μM-3 μM 1 μM-0.3 μM-0.1 μM-0.03 μM-0, 01 μM-0.003 μM-0.001 μM, all wells are subjected to DMSO normalization and drug incubation occurs for 1 hour. Then, […] of a 4× lysis buffer supplied with the kit are added to the wells, the plate is then centrifuged for 30 second (3000 rpm) and incubated on a plate shaker for 1 h at rt.
(§3) At the end of the incubation 4 μL/well of advanced P-ERK antibody solution (prepared according to manufacturer's instruction) followed by 4 μL/well of criptate P-ERK antibody solution (prepared according to manufacturer's instruction) (Cisbio cat #64AERPEH) are added to test wells.
(§4) In order to allow proper data normalization control wells non drug treated reported in the following table are always included in each plate (according to manufacturer's instruction):
(§5) The plate is then centrifuged at 3000 rpm for 30 second, sealed to prevent evaporation and incubated overnight in the dark at room temperature.
(§6) The plate is then analyzed and fluorescence emission value collected through a Pherastast FSX (BMG Labtech) apparatus at […].
(§7) The obtained fluorescence values are processed according to the formula Ratio=[…]*10000 then the average of the ratio on the blank is subtracted to all values.
Data are normalized in the case of A375 cells (BRAF inhibition) considering the average of the ratio (blank subtracted) derived by DMSO only treated cells as 100% and by considering the average of the ratio (blank subtracted) derived by 10 μM Dabrafenib treated cells as 0%. Mean of the normalized points are fitted with sigmoidal curve and IC50 determined.

[2] = system: P-ERK (ERK phospho-T202/Y204) in HCT116 cells expressing WT BRAF; test: HTRF assay for P-ERK determination in HCT116 cells (BRAF activation); format: cell-based; conditions: Homo sapiens, HCT-116, drug incubation 1 hour, concentration giving 50% of the maximum activation achieved by Dabrafenib
Source text: as §1, §2, §3, §4, §5, §6, §7
Data are normalized in the case of HCT116 cells (BRAF activation) considering the average of the ratio (blank subtracted) derived by DMSO only treated cells as 0% and by considering the average of the ratio (blank subtracted) derived by Dabrafenib treated cells at the concentration which provides the highest signal as 100%. Individual points are fitted with either sigmoidal or bell shape curves. The EC50 is the concentration at which activation equal to 50% of the maximum activation achieved by Dabrafenib is obtained.

[3] = target: BRAF (wt) (Homo sapiens, UniProt P15056); test: KD BRAF (wt) (Table 1); format: binding
[4] = target: BRAF (V600E) (Homo sapiens, UniProt P15056, V600E); test: KD BRAF (V600E) (Table 1); format: binding
Sequence of BRAF (V600E) (P15056 whole entry V600E): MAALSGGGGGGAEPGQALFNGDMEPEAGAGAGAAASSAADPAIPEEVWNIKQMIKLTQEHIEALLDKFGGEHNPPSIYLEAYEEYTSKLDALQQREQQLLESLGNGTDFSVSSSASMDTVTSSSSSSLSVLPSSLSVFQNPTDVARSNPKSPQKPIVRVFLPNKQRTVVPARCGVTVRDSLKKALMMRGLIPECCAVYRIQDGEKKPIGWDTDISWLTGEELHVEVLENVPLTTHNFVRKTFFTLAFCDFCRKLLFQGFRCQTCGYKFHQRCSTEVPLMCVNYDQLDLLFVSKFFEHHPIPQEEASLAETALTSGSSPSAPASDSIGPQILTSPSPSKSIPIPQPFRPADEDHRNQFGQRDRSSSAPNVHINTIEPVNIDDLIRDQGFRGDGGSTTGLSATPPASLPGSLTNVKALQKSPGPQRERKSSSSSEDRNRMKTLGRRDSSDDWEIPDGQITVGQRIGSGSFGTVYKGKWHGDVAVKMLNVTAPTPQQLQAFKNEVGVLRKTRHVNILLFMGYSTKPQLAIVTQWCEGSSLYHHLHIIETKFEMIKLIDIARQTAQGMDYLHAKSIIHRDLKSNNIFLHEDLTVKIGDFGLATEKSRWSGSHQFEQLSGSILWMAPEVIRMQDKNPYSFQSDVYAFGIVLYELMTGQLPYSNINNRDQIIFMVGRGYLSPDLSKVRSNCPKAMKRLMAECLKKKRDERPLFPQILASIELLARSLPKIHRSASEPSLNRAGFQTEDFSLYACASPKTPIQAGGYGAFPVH

Sequence of BRAF (wt) (P15056 whole entry): as the sequence (P15056 whole entry V600E) above, with E600V counted along it

SMILES	IC50 [1]	EC50 [2]	Kd [3]	Kd [4]
CCN(C)S(=O)(=O)Nc1ccc(F)c(Oc2ccc3ncn(CCCC(=O)OC(C)(C)C)c(=O)c3c2)c1C#N [Example 1, tert-butyl 4-[6-[2-cyano-3-[[ethyl(methyl)sulfamoyl]amino]-6-fluoro-phenoxy]-4-oxo-quinazolin-3-yl]butanoate]	19.8 nM	2360 nM	15.3 nM	26.7 nM
CC(C)(C)OC(=O)N1CCC(CCn2cnc3ccc(Oc4c(F)ccc(NS(=O)(=O)N5CC[C@@H](F)C5)c4C#N)cc3c2=O)CC1 [Example 2, tert-butyl 4-[2-[6-[2-cyano-6-fluoro-3-[[(3R)-3-fluoropyrrolidin-1-yl]sulfonylamino]phenoxy]-4-oxo-quinazolin-3-yl]ethyl]piperidine-1-carboxylate]	30.3 nM	2250 nM	18.9 nM	21.4 nM
CCN(C)S(=O)(=O)Nc1ccc(F)c(Oc2ccc3ncn(CCC4CCN(C(=O)OC(C)(C)C)CC4)c(=O)c3c2)c1C#N [Example 3, tert-butyl 4-[2-[6-[2-cyano-3-[[ethyl(methyl)sulfamoyl]amino]-6-fluoro-phenoxy]-4-oxo-quinazolin-3-yl]ethyl]piperidine-1-carboxylate]	41 nM	6400 nM	78.3 nM	162 nM
CC(C)(C)OC(=O)NCCCn1cnc2ccc(Oc3c(F)ccc(NS(=O)(=O)N4CC[C@@H](F)C4)c3C#N)cc2c1=O [Example 4, tert-butyl N-[3-[6-[2-cyano-6-fluoro-3-[[(3R)-3-fluoropyrrolidin-1-yl]sulfonylamino]phenoxy]-4-oxo-quinazolin-3-yl]propyl]carbamate]	73.5 nM	7080 nM	1.09 nM	2.75 nM
CC(C)(C)OC(=O)NCCCn1cnc2ccc(Oc3c(F)ccc(NS(=O)(=O)N4CCCC4)c3C#N)cc2c1=O [Example 5, tert-butyl N-[3-[6-[2-cyano-6-fluoro-3-(pyrrolidin-1-ylsulfonylamino)phenoxy]-4-oxo-quinazolin-3-yl]propyl]carbamate]	18.1 nM	1190 nM	1.35 nM	2.82 nM
CCN(C)S(=O)(=O)Nc1ccc(F)c(Oc2ccc3ncn(CCCNC(=O)OC(C)(C)C)c(=O)c3c2)c1C#N [Example 6, tert-butyl N-[3-[6-[2-cyano-3-[[ethyl(methyl)sulfamoyl]amino]-6-fluoro-phenoxy]-4-oxo-quinazolin-3-yl]propyl]carbamate]	41.6 nM	≥ 10000 nM	6.36 nM	19.4 nM
CC(C)(C)OC(=O)N1CCC(CCn2cnc3ccc(Oc4c(F)ccc(NS(=O)(=O)N5CCCC5)c4C#N)cc3c2=O)CC1 [Example 7, tert-butyl 4-[2-[6-[2-cyano-6-fluoro-3-(pyrrolidin-1-ylsulfonylamino)phenoxy]-4-oxo-quinazolin-3-yl]ethyl]piperidine-1-carboxylate]	52 nM	2100 nM	12.2 nM	20.8 nM
CC(C)(C)OC(=O)NCCCn1cnc2ccc(Oc3c(F)ccc(NS(=O)(=O)C4CCCC4)c3C#N)cc2c1=O [Example 8, tert-butyl N-[3-[6-[2-cyano-3-(cyclopentylsulfonylamino)-6-fluoro-phenoxy]-4-oxo-quinazolin-3-yl]propyl]carbamate]	33.9 nM	2430 nM	4.86 nM	7.83 nM
CC(C)(C)OC(=O)NCCCn1cnc2ccc(Oc3c(F)ccc(NS(=O)(=O)N4CCC4)c3C#N)cc2c1=O [Example 9, tert-butyl N-[3-[6-[3-(azetidin-1-ylsulfonylamino)-2-cyano-6-fluoro-phenoxy]-4-oxo-quinazolin-3-yl]propyl]carbamate]	28.9 nM	624 nM	0.69 nM	0.97 nM

— US12570615B2, “Quinazolinone derivatives” (Hoffmann-La Roche Inc., priority 2021, dated 2026)
